Test system: rat cardiomyocytes culture
Test: Spontaneous electrical (beating) activity of rat cardiomyocyte culture recorded with the organic transistor (OCMFET) system, pharmacological modulation
Assay type: cell-based
Conditions: 100 μM; for beating frequency modulation: spike-count on 4 min: rat cardiomyocytes culture (8 DIV) at 37° C., Verapamil added after Norepinephrine, statistics on 5 transistors, average and standard deviation, basal 129±4.6; for chemical tuning of the culture's spontaneous activity (drain current vs time): rat cardiomyocytes culture at 37° C., Norepinephrine first, then Verapamil
Description: The system 100 was able to detect the occurrence of the signals (similarly to what MEA-based devices do), the beat rate and its rapid changing related to pharmacological modulations, obtained by applying both positive and negative chronotropic compounds (according to the method described in Simpson, P. Stimulation of hypertrophy of cultured neonatal rat heart cells through an alpha 1-adrenergic receptor and induction of beating through an alpha 1- and beta 1-adrenergic receptor interaction. Evidence for independent regulation of growth and beating. Circ. Res. 56, 884-894 (1985); Yonemochi, H., Saikawa, T., Takakura, T., Ito, S., Takaki, R. Effects of calcium antagonist on β-receptors of cultured cardiac myocytes isolated from neonatal rat ventricle. Circulation 81, 1401-1408 (1990)). In FIG. 13 an example of extracellular action potentials measured, with an organic transistor 10 is shown. Considering a p-type organic transistor and a first inverting stage of the readout electronics, the shape of the single signal shown in FIG. 13 is consistent with the expected current fluctuation caused by the ionic charge displacement in the early phase of the cardiac action potential. The drain current IDS fluctuation is driven by the fast movement of Na+ ions occurring at the very beginning of the intracellular action potential.
Systematic measurements by recording the spontaneous electrophysiological activity of rat cardiomyocytes (8 Days InVitro—DIV) by means of the system 100 (FIG. 14) have been performed.
All the measurements relative to the pharmacological modulation of the electrical activity were performed while maintaining the culture at constant temperature (37° C.) and the same reliable results were obtained in five recording devices simultaneously.

SMILES | beating frequency modulation: spike-count on 4 min | chemical tuning of the culture's spontaneous activity (drain current vs time)
NC[C@H](O)c1ccc(O)c(O)c1 [Norepinephrine] | 280±28.6 | accelerated
COc1ccc(CCN(C)CCCC(C#N)(c2ccc(OC)c(OC)c2)C(C)C)cc1OC (stereo not shown) [Verapamil] | 15±1.9 | suppressed
